Measurements as given in patent US20230021483A1, “[…] […] METHOD AND CLASSIFICATION OF PHARMACEUTICAL COMPONENTS BY USING TRANSCRIPTOMES” (National Institutes of Biomedical Innovation, Health and …, priority 2016, published 2023).

Tested on: preferentially upregulated genes in LV, SP, LN
Assay: Z-score-based differential gene expression analysis (adjuvant group- or adjuvant-associated genes, 40 module mapping, TargetMine annotation)
Assay type: in vivo, C57BL/6 mice
Parameters: key to z sum, 1458589_at ---: sum of the per-gene fold-change z-scores of the triplicate samples
Conditions: ID
Outline: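 Per-sample fold-change values converted to gene-wise z-scores within each organ's data set, then triplicate z-scores summed per adjuvant. Genes with summed score >3 taken as preferentially expressed; gene groups defined by combined per-adjuvant z-score thresholds (z>1 to z>3) specific to each organ.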

SMILES: Nc1nc2c(ncn2[C@@H]2O[C@@H]3COP(=O)(O)O[C@H]4[C@@H](O)[C@H](n5cnc6c(N)ncnc65)O[C@@H]4COP(=O)(O)O[C@@H]2[C@@H]3O)c(=O)[nH]1 [cGAMP, Cyclic [G(2′,5′)pA(3′,5′)p]]
- z sum, 1428027_at LOC100653389 (LN, Modules 26): −1.72
- z sum, 1419721_at Niacr1 (LN, Modules 27): −2.05
- z sum, 1418424_at Tnfaip6 (LN, Modules 29): −2.05
- z sum, 1419534_at Olr1 (LN, Modules 29): −2.35
- z sum, 1421457_a_at Samsn1 (LN, Modules 29): −1.88
- z sum, 1422305_at Ifnb1 (LN, Modules 29): −1.97
- z sum, 1423028_at Ifna2 (LN, Modules 29): −1.92
- z sum, 1425837_a_at Ccrn4l (LN, Modules 29): −2.11
- z sum, 1436387_at C330006P03Rik///Homer1 (LN, Modules 29): −1.73
- z sum, 1439349_at Sbno2 (LN, Modules 29): −2.1
- z sum, 1444010_at Eif4e (LN, Modules 29): −1.99
- z sum, 1448325_at Ppp1r15a (LN, Modules 29): −2.32
- z sum, 1449311_at Bach1 (LN, Modules 29): −1.95
- z sum, 1450297_at Il6 (LN, Modules 29): −2.07
- z sum, 1455197_at Rnd1 (LN, Modules 29): −2.12
- z sum, 1455899_x_at Socs3 (LN, Modules 29): −2.14
- z sum, 1417252_at Ptgs2 (LN, Modules 34): −2.41
- z sum, 1417263_at Ptgs2 (LN, Modules 34): −2.18
- z sum, 1419132_at Tfr2 (LN, Modules 34): −1.86
- z sum, 1421473_at Il1a (LN, Modules 34): −2.25
- z sum, 1439981_at Tespa1 (LN, Modules 35): −2.15
- z sum, 1441843_s_at 5230400M03Rik (LN, Modules 35): −1.71
- z sum, 1442556_at --- (LN, Modules 35): −1.95
- z sum, 1443414_at C78513 (LN, Modules 35): −1.91
- z sum, 1444598_at --- (LN, Modules 35): −1.93
- z sum, 1445534_at --- (LN, Modules 35): −1.93
- z sum, 1446245_at --- (LN, Modules 35): −1.58
- z sum, 1457944_at --- (LN, Modules 35): −1.78
- z sum, 1458376_at B930025B16Rik (LN, Modules 35): −1.85
- z sum, 1459144_at --- (LN, Modules 35): −1.91
- z sum, 1425687_at Cflar (LN, Modules 36): −2.21
- z sum, 1427736_a_at Ccrl2 (LN, Modules 36): −1.74
- z sum, 1449169_at Has2 (LN, Modules 36): −1.67
- z sum, 1453636_at Pcgf5 (LN, Modules 36): −1.86
- z sum, 1457888_at --- (LN, Modules 36): −1.91
- z sum, 1419508_at Ripk1 (LN, Modules 37): −1.9
- z sum, 1421578_at Ccl4 (LN, Modules 37): −2.14
- z sum, 1421679_a_at Cdkn1a (LN, Modules 37): −1.99
- z sum, 1424638_at Cdkn1a (LN, Modules 37): −2.22
- z sum, 1433508_at Klf6 (LN, Modules 37): −2.41
- z sum, 1434350_at Csrnp1 (LN, Modules 37): −1.97
- z sum, 1439680_at Tnfsf10 (LN, Modules 37): −1.65
- z sum, 1448724_at Cish (LN, Modules 37): −2.38
- z sum, 1451340_at Arid5a (LN, Modules 37): −1.67
- z sum, 1453851_a_at Gadd45g (LN, Modules 37): −1.96
- z sum, 1457404_at Nfkbiz (LN, Modules 37): −1.92
- z sum, 1458589_at --- (LN, Modules 37): −2.36
- z sum, 1422054_a_at 5kil (LN, Modules 40): −2.23
- z sum, 1428735_at Cd69 (LN, Modules 40): −1.52
- Adar 1425405_a_at (Group G1, Modules 20) (LV, sample x1): 2.95
- Adar 1434268_at (Group G1, Modules 20) (LV, sample x1): 2.22
- Ddx58 1436562_at (Group G1, Modules 20) (LV, sample x1): 2.04
- Ddx58 1456890_at (Group G1, Modules 20) (LV, sample x1): 2.26
- Eif2ak2 1422005_at (Group G1, Modules 20) (LV, sample x1): 3.11
- G3bp2 1421323_a_at (Group G1, Modules 20) (LV, sample x1): 3.19
- Gm9706///Isg15 1431591_s_at (Group G1, Modules 20) (LV, sample x1): 2.13
- H2-T10///H2-T22///H2-T9 1449875_s_at (Group G1, Modules 20) (LV, sample x1): 2.29
- Ifih1 1426276_at (Group G1, Modules 20) (LV, sample x1): 1.73
- Ifit1 1450783_at (Group G1, Modules 20) (LV, sample x1): 2.75
- Ifit3 1449025_at (Group G1, Modules 20) (LV, sample x1): 2.13
- Irf7 1417244_a_at (Group G1, Modules 20) (LV, sample x1): 1.6
- Irgm1 1418825_at (Group G1, Modules 20) (LV, sample x1): 2.25
- Mndal 1426906_at (Group G1, Modules 20) (LV, sample x1): 2.08
- Pml 1448757_at (Group G1, Modules 20) (LV, sample x1): 2.13
- Pml 1456103_at (Group G1, Modules 20) (LV, sample x1): 1.62
- Rnf213 1455500_at (Group G1, Modules 20) (LV, sample x1): 2.58
- Rsad2 1436058_at (Group G1, Modules 20) (LV, sample x1): 2.08
- Shisa5 1423986_a_at (Group G1, Modules 20) (LV, sample x1): 1.7
- Shisa5 1437503_a_at (Group G1, Modules 20) (LV, sample x1): 1.57
- Stat1 1450033_a_at (Group G1, Modules 20) (LV, sample x1): 3.11
